Usually IC50 stands for the midpoint of a concentration-inhibition curve. One may read the inhibition as how much of the control response was suppressed.

The target in the first assay is Mcl-1 protein (Homo sapiens, UniProt Q07820). Kind of assay: Inhibition of Mcl-1 by the fluorescence polarisation technique (Method 1 or Method 2). Type of assay: binding. Conditions: fluorescence polarisation, Fluorescein labelled ligand; Method 1 (not underlined) or Method 2 (underlined); read-out: IC50 (μM) Mcl-1 FP. In a few lines: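 Fluorescence polarisation competition of 11-point compound dilutions (5% DMSO final) against fluorescein-labelled ligand for Mcl-1. Method 1: 1 nM ligand, 5 nM protein in 10 mM HEPES, 150 mM NaCl, 0.05% Tween 20, pH 7.4; Method 2: 10 nM ligand, 10 nM protein in 20 mM Na2HPO4, 1 mM EDTA, 50 mM NaCl, pH 7.4.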
Mcl-1 protein, sequence (Q07820 whole entry): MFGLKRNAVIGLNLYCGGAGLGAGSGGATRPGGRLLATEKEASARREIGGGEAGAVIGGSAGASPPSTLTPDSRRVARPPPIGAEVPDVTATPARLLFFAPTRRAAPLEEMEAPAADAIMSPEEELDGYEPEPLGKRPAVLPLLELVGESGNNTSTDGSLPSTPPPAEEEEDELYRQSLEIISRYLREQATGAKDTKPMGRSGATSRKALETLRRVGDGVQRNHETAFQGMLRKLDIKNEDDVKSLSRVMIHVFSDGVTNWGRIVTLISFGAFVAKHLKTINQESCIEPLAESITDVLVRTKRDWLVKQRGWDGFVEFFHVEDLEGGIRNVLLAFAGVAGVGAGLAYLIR
On the technique in general: Polarisation of emitted light reports the rotation of a fluorescent probe.
On to `CCc1sc2ncnc(N[C@H](CC3CCCCC3)C(=O)O)c2c1-c1cccc2ccccc12` [Example 164, 3-cyclohexyl-N-[6-ethyl-5-(naphthalen-1-yl)thieno[2,3-d]pyrimidin-4-yl]-D-alanine], for which the IC50 worked out at 0.227 µM.
In the case of `CCc1sc2ncnc(N[C@H](Cc3ccccc3)C(=O)O)c2c1-c1cccc2ncccc12` [Example 80, N-[6-ethyl-5-(quinolin-5-yl)thieno[2,3-d]pyrimidin-4-yl]-D-phenylalanine], the IC50 amounted to 0.487 µM.
Consider `CCc1sc2ncnc(N[C@H](Cc3cccc4ccccc34)C(=O)O)c2c1-c1cccc2ccccc12` (single isomer, unassigned) [Example 187, N-[6-ethyl-5-(naphthalen-1-yl)thieno[2,3-d]pyrimidin-4-yl]-3-naphthalen-1-yl-D-alanine], for which the IC50 amounted to 1.39 µM.
Consider `CCc1sc2ncnc(NC(Cc3ccccc3)C(=O)O)c2c1-c1cc(Cl)c(O)c(Cl)c1C` [Example 53, N-[(5Sa)-5-(3,5-dichloro-4-hydroxy-2-methylphenyl)-6-ethylthieno[2,3-d]pyrimidin-4-yl]-D-phenylalanine], for which the IC50 stood at 0.02 µM.
Consider `CCc1sc2ncnc(NC(Cc3ccccc3OCCN(C)C)C(=O)O)c2c1-c1cccc(Cl)c1C` [Example 156, N-[(5Sa)-5-(3-chloro-2-methylphenyl)-6-ethylthieno[2,3-d]pyrimidin-4-yl]-2-[2-(dimethylamino)ethoxy]-D-phenylalanine], for which the IC50 came out at 0.309 µM.
Still for that read-out and setting: for `CCc1sc2ncnc(NC(Cc3ccccc3)C(=O)O)c2c1-c1cccc2c1c(Cl)cn2CCN1CCCCC1` [Example 235, N-((5Sa)-5-{3-chloro-1-[2-(piperidin-1-yl)ethyl]-1H-indol-4-yl}-6-ethyl-thieno[2,3-d]pyrimidin-4-yl)-D-phenylalanine] the value was 1.39 µM.
Take `CCc1sc2ncnc(N[C@H](Cc3ccccc3)C(=O)O)c2c1-c1cccc2cc[nH]c12` (single isomer, unassigned) [Example 72, N-[6-ethyl-5-(1H-indol-7-yl)thieno[2,3-d]pyrimidin-4-yl]-D-phenylalanine]: the IC50 was 12 µM.
For the molecule `CCOC(=O)C(Cc1ccccc1OCc1ccnc(-c2ccccc2OCCOC)n1)Nc1ncnc2sc(-c3ccc(F)cc3)c(-c3ccc(OCCN(C)C)c(Cl)c3C)c12` [Example 260, ethyl N-[(5Sa)-5-{3-chloro-4-[2-(dimethylamino)ethoxy]-2-methylphenyl}-6-(4-fluorophenyl)thieno[2,3-d]pyrimidin-4-yl]-2-({2-[2-(2-methoxyethoxy)phenyl]pyrimidin-4-yl}methoxy)-D-phenylalaninate], the IC50 was found to be 1.98 µM.
Turning to `O=C(O)C(Cc1ccccn1)Nc1ncnc2sc(C(F)F)c(-c3cccc4ccccc34)c12` [Example 251, N-[6-(difluoromethyl)-(5Ra)-5-(naphthalen-1-yl)thieno[2,3-d]pyrimidin-4-yl]-3-pyridin-2-yl-D-alanine], the 50% inhibitory concentration (IC50) came to 12.1 µM.
In the case of `CC=Cc1sc2ncnc(NC(Cc3ccccc3)C(=O)O)c2c1-c1cccc2ccccc12` [Example 109, N-{(5Ra)-5-(naphthalen-1-yl)-6-[(1E)-prop-1-en-1-yl]thieno[2,3-d]pyrimidin-4-yl}-D-phenylalanine], the IC50 turned out to be 1.86 µM.
For the molecule `CCc1sc2ncnc(NC(Cc3ccccc3)C(=O)O)c2c1-c1cccc2c1c(Cl)cn2CCN(C)C` [Example 230, N-((5Sa)-5-{3-chloro-1l-[2-(dimethylamino)ethyl]-1H-indol-4-yl}-6-ethyl-thieno[2,3-d]pyrimidin-4-yl)-D-phenylalanine], the IC50 stood at 3.24 µM.
Consider `CC(=O)c1sc2ncnc(NC(Cc3ccccc3)C(=O)O)c2c1-c1cccc2ccccc12` [Example 199, N-[6-acetyl-(5Sa)-5-(naphthalen-1-yl)thieno[2,3-d]pyrimidin-4-yl]-D-phenylalanine], for which the concentration for half-maximal inhibition (IC50) was 0.298 µM.
On the same count and under the same terms, for `CCc1sc2ncnc(NC(Cc3ccccc3)C(=O)O)c2c1-c1cccc(F)c1C` [Example 69, N-[6-ethyl-(5Sa)-5-(3-fluoro-2-methylphenyl)thieno[2,3-d]pyrimidin-4-yl]-D-phenylalanine] the value was 0.109 µM.
Regarding `CCc1sc2ncnc(NC(Cc3ccc(O)cc3)C(=O)O)c2c1-c1cccc2ccccc12` [Example 173, N-[6-ethyl-(5Sa)-5-(naphthalen-1-yl)thieno[2,3-d]pyrimidin-4-yl]-D-tyrosine], the IC50 came out at 6.79 µM.
Take `C=Cc1sc2ncnc(NC(Cc3ccccc3)C(=O)O)c2c1-c1cccc2ccccc12` [Example 102, N-[6-ethenyl-(5Sa)-5-(naphthalen-1-yl)thieno[2,3-d]pyrimidin-4-yl]-D-phenylalanine]: the IC50 is 0.073 µM.
On to `CCc1sc2ncnc(N[C@@H](C(=O)O)c3ccccc3)c2c1-c1cccc2ccccc12` (single isomer, unassigned) [Example 160], for which the IC50 is 11.7 µM.
Still for that read-out and setting: the same measure for `CCc1sc2ncnc(NC(CC3CCCCC3)C(=O)O)c2c1-c1cccc2ccccc12` [Example 165, 3-cyclohexyl-N-[6-ethyl-(5Ra)-5-(naphthalen-1-yl)thieno[2,3-d]pyrimidin-4-yl]-D-alanine]: 0.315 µM.

Staying with this assay, now noted: partial inhibitors; @ 10 μM test compound.
For the molecule `CCc1sc2ncnc(N[C@H](Cc3ccccc3Br)C(=O)O)c2c1-c1cccc(Cl)c1C` [Example 139, 2-bromo-N-[(5Ra)-5-(3-chloro-2-methylphenyl)-6-ethylthieno[2,3-d]pyrimidin-4-yl]-D-phenylalanine], the “percentage fluorescence polarisation inhibition, Mcl-1 FP” value is on record as 32.75% @ 10 μM.

The same assay, now with this note: partial inhibitors; @ 50 μM test compound.
With `CCc1sc2ncnc(N[C@H](Cc3c(F)cccc3F)C(=O)O)c2c1-c1cccc(Cl)c1C` [Example 130, N-[(5Ra)-5-(3-chloro-2-methylphenyl)-6-ethylthieno[2,3-d]pyrimidin-4-yl]-2,6-difluoro-D-phenylalanine], the “percentage fluorescence polarisation inhibition, Mcl-1 FP” value came to 67.4% @ 50 μM.
As for `CCc1sc2ncnc(N[C@H](Cc3ccccc3C#N)C(=O)O)c2c1-c1cccc(Cl)c1C` [Example 126, N-[(5Ra)-5-(3-chloro-2-methylphenyl)-6-ethylthieno[2,3-d]pyrimidin-4-yl]-2-cyano-D-phenylalanine], the “percentage fluorescence polarisation inhibition, Mcl-1 FP” value was found to be 41.2% @ 50 μM.
As for `Cc1c(Cl)cccc1-c1c(C(C)C)sc2ncnc(N[C@@H](Cc3ccccc3)C(=O)O)c12` [Example 218, N-[(5Sa)-5-(3-chloro-2-methylphenyl)-6-(propan-2-yl)thieno[2,3-d]pyrimidin-4-yl]-L-phenylalanine], the “percentage fluorescence polarisation inhibition, Mcl-1 FP” value was 71.5% @ 50 μM.

Staying with this assay, now noted: partial inhibitors; @ 100 μM test compound; 100 µM.
On to `CC(O)c1sc2ncnc(N[C@H](Cc3ccccc3)C(=O)O)c2c1-c1cccc2ccccc12` (single isomer, unassigned) [Example 205, N-[6-(1-hydroxyethyl)-5-(naphthalen-1-yl)thieno[2,3-d]pyrimidin-4-yl]-D-phenylalanine], for which the “percentage fluorescence polarisation inhibition, Mcl-1 FP” value is 26.2% @ 100 μM.

Still in this assay, the particulars now being: partial inhibitors; @ 200 μM test compound.
Turning to `O=C(O)[C@@H](Cc1ccccc1)Nc1ncnc2sc(CO)c(-c3cccc4ccccc34)c12` [Example 197, N-[6-(hydroxymethyl)-(5Ra)-5-(naphthalen-1-yl)thieno[2,3-d]pyrimidin-4-yl]-D-phenylalanine], the “percentage fluorescence polarisation inhibition, Mcl-1 FP” value came to 54.1% @ 200 μM.

The same assay, now with this note: partial inhibitors; @ 200 μM test compound; read-out: percentage fluorescence polarisation inhibition, Mcl-1 FP.
Regarding `CCc1sc2ncnc(N[C@H](Cc3ccccc3)C(=O)O)c2c1-c1cccc2cccnc12` [Example 99, N-[6-ethyl-5-(quinolin-8-yl)thieno[2,3-d]pyrimidin-4-yl]-D-phenylalanine], the inhibition at 200 µM was determined as 28.3%.

For the origin of these results see US10457687B2, “Aminoacid derivatives, a process for their preparation and pharmaceutical compositions containing them” (LES LABORATOIRES SERVIER, priority 2015, dated 2019).
